Measured values published in patent US12186359B2, “Composition containing branched-chain amino acids” (priority 2019, dated 2025).
Peptide text beside a SMILES is read from it.

Details: mouse, in vivo
Procedure: The aim of the study was to compare the exposure of L-Leucine-13C6, 15N, L-Isoleucine-13C6, 15N, L-Valine-13C5, 15N in plasma after their administration alone or in association with L-Alanine or L-Alanyl-L-alanine in the mouse. Plasma samples were analyzed by dean-up and derivatization using the EZfaast™ amino acid analysis kit (Phenomenex) and analyzed by UPLC-MSMS.
CD1 mouse with body weights of 25-30 gr at the time of the treatment were used in this study, approximate age was about 4 weeks according to growth curve. The animals were originally supplied by Harlan, Italy. Once receipt from the supplier, the animals were subjected to health examinations and acceptance. The animals were housed, in a group of five, in cages suitable for the species. The animals were acclimatized to local housing conditions for approximately 5 days. The animals were routinely kept in the following environment except for short periods of time where experimental procedures dictated otherwise. The animals were housed in a single, exclusive room, air conditioned to provide a minimum of 15 air changes/hour. […] Clinical signs were monitored at regular intervals throughout the study in order to assess any reaction to treatment. […]

## C[C@H](N)C(=O)N[C@@H](C)C(=O)O [L-Alanyl-L-alanine] (H-Ala-Ala-OH)
  Plasma concentrations of the labelled amino acids (AUC0-24 h), rank among groups: highest concentrations
